PMC11742080, “Decavanadate Compound Displays In Vitro and In Vivo Antitumor Effect on Melanoma Models” (Bioinorganic Chemistry and Applications, 2025)
pIC50: −log10 of the molar value. Where two headings read alike, the source gives them in different places.

Experiments:
[1] = tested on: normal human keratinocyte cells (HaCaT); settings: cited from earlier work
[2] = tested on: murine B16-F10 melanoma cells; settings: cited from earlier work
[3] = tested on: IGR37 human melanoma cells; experiment: MTT cell viability assay, IGR37; format: cell-based
Experimental: (§1) The MTT assay was first described as a sensitive, quantitative, and reliable colorimetric assay to measure the viability, proliferation, and activation of cells. Cell viability was assessed at 24 and 72 h of treatment to evaluate cytotoxicity and the effect on cell proliferation of the decavanadate compound, respectively. The concentrations of the decavanadate compound have been determined by weighing the compound in its crystal form and then solubilizing it in distilled water.
(§2) All cell lines were seeded in 96-well plates (Nunc, Roskilde, Denmark) at a density of 10^4 cells per well and were incubated overnight, before treatment with different concentrations of the decavanadate compound. After 24 or 72 h of treatment, fresh media solution containing MTT at 0.5 mg/mL was added to cells and incubated for 3 h at 37°C. The formed formazan crystals were then dissolved in DMSO, and the absorbance was measured at 560 nm using a BioTek EON Microplate Spectrophotometer (Fisher Scientific). Cell viability was expressed as a percentage of the viable cell number of the untreated cells (control [CTR]).
(§3) The concentration of the decavanadate compound required for 50% growth inhibition (IC50 value) was estimated as resulting in a 50% decrease in absorbance, compared to the CTR.

[4] = tested on: human SK-MEL-28 melanoma; settings: cited from earlier work
[5] = tested on: IGR39 human melanoma cells; experiment: MTT cell viability assay, IGR39; format: cell-based
Experimental: as §1, §2, §3

[6] = tested on: COLO829 melanoma cell; parameters: method as in PMID 32967177; settings: read-out: IC50, cell proliferation; cited from earlier work
[7] = tested on: skin papillomas caused by the injection of DMBA and croton oil; parameters: method as in PMID 28010928; settings: 5 mg/kg; cited from earlier work
[8] = tested on: A375 human melanoma cell; parameters: method as in PMID 33132760; settings: A375, 24 h treatment, cited from earlier work
[9] = tested on: allograft model of B16-F10 cells in mice; parameters: method as in PMID 29407869, PMID 6722991; settings: cited from earlier work
[10] = tested on: IGR39 cells; settings: IGR39 proliferation; read-out: IC50, antiproliferative effect on IGR39; cited from earlier work
[11] = tested on: UACC-62 human melanoma cells; settings: UACC-62, at 5 μM; cited from earlier work

**Q.** With `N.N.[Cl][Pt][Cl]` [Cisplatin, cisplatin] as the compound, how does the pIC50 ([1]; HaCaT, 24 h) read?
**A.** 4.62

**Q.** What about the pIC50 ([1]; HaCaT, 72 h) of the same compound?
**A.** 4.62

**Q.** And the pIC50 ([1]; keratinocyte cell line, 'was reported', no reference printed in the abstract)?
**A.** 4.62

**Q.** What about the pIC50 ([2]; B16-F10, 24 h) of the same compound?
**A.** 4.71

**Q.** And the pIC50 ([2]; B16-F10, 72 h)?
**A.** 5.00

**Q.** And the pIC50 ([3]; IGR37, 24 h treatment)?
**A.** 4.58

**Q.** And the “IC50, cell viability” value ([3]; IGR37, 24 h treatment)?
**A.** 8 µg/mL

**Q.** And the pIC50 ([3]; IGR37, 72 h treatment)?
**A.** 5.52

**Q.** What about the “IC50, cell viability” value ([3]; IGR37, 72 h treatment) of the same compound?
**A.** 0.9 µg/mL

**Q.** What about the pIC50 ([4]; SKMEL28, 24 h) of the same compound?
**A.** < 4.90

**Q.** What about the pIC50 ([4]; SKMEL28, 72 h) of the same compound?
**A.** 5.02

**Q.** What about the pIC50 ([5]; IGR39, 24 h treatment) of the same compound?
**A.** 4.08

**Q.** What about the “IC50, cell viability” value ([5]; IGR39, 24 h treatment) of the same compound?
**A.** 25 µg/mL

**Q.** And the pIC50 ([5]; IGR39, 72 h treatment)?
**A.** 4.90

**Q.** And the “IC50, cell viability” value ([5]; IGR39, 72 h treatment)?
**A.** 3.8 µg/mL

**Q.** With `CN(C)c1ccc(O)c2c1C[C@H]1C[C@H]3[C@H](N(C)C)C(O)=C(C(N)=O)C(=O)[C@@]3(O)C(O)=C1C2=O` [Minocycline] as the compound, how does the pIC50 [6] read?
**A.** 4.86

**Q.** With `C[C@H]1c2cccc(O)c2C(=O)C2=C(O)[C@]3(O)C(=O)C(C(N)=O)=C(O)[C@@H](N(C)C)[C@@H]3[C@@H](O)[C@@H]21` [doxycycline] as the compound, how does the pIC50 [6] read?
**A.** 4.79

**Q.** For `[O]=[V]([O-])([O-])[O-]` [orthovanadate], which “Incidence of skin papillomas” value [7] is on record?
**A.** partially inhibited the incidence of skin papillomas

**Q.** Which results are given for `C[C@@H]1O[C@@H](OC[C@H]2O[C@@H](Oc3c(-c4ccc(O)c(O)c4)oc4cc(O)cc(O)c4c3=O)[C@H](O)[C@@H](O)[C@@H]2O)[C@H](O)[C@H](O)[C@H]1O` [rutoside]?
**A.** IC50, cell viability [8]: about 100 μg/mL; pIC50 ([8]; read-out: IC50, cell viability): ~3.79

**Q.** For `[O]=[V]([O-])([O-])[O-]` [vanadate], which “Tumor size and incidence” value [9] is on record?
**A.** significantly decreased tumor size and their incidence

**Q.** Which “Tumor size and incidence” value [9] does the source give for `O=S(=O)([O-])[O-].[O]=[V+2]` [vanadyl sulfate] here?
**A.** significantly decreased tumor size and their incidence

**Q.** With (C4N2H7)6(C4N2H6)2V10O28 as the compound, how does the pIC50 [10] read?
**A.** 5.15

**Q.** With (NH4)4Li2V10O2810H2O as the compound, how does the pIC50 [10] read?
**A.** 5.01

**Q.** With Mg(H2O)6(C4N2H7)4V10O28·4H2O as the compound, how does the pIC50 [10] read?
**A.** 5.70

**Q.** Which Inhibition of proliferation [11] does the source give for metformin–decavanadate [Metf-V10] here?
**A.** 80%
